From US11254686B1 (Corvus Pharmaceuticals, Inc., priority 2017, dated 2022) come the findings set out here.

pIC50: −log10 of the molar value. Some results are limits rather than exact numbers.

Experiment [1] concerns the target adenosine A2B receptor (Homo sapiens (Human), UniProt P29275). Nature of the experiment: Adenosine receptor activity assay (Table 1), A2B activity. It counts as biochemical. To be noted: for pIC50: read-out: Ave A2B cAMP IC50.
For experiment [2], the target named is adenosine A2A receptor (Homo sapiens (Human), UniProt P29274). Nature of the experiment: Adenosine receptor activity assay (Table 1), A2A activity. Particulars: read-out: Ave A2A cAMP IC50. The format is biochemical.
Setting [3] is: A2A activity to A2B activity (A2A/A2B).
[4] abbreviates: A2A activity to the A2B activity, A2A/A2B.

For orientation: pIC50 means −log10 of the IC50, conventionally taken in molar units.

Chain of adenosine A2A receptor (P29274 whole entry): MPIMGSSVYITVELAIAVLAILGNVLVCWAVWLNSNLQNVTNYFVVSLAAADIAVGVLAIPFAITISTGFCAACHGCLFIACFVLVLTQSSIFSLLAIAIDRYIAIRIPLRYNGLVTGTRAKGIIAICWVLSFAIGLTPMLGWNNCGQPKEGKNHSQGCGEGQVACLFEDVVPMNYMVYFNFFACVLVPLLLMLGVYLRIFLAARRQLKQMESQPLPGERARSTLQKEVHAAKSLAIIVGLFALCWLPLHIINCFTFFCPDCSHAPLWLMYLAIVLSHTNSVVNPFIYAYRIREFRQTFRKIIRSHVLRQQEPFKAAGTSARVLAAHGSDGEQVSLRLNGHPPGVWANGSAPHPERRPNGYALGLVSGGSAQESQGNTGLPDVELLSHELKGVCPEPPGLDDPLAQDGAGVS
Chain of adenosine A2B receptor (P29275 whole entry): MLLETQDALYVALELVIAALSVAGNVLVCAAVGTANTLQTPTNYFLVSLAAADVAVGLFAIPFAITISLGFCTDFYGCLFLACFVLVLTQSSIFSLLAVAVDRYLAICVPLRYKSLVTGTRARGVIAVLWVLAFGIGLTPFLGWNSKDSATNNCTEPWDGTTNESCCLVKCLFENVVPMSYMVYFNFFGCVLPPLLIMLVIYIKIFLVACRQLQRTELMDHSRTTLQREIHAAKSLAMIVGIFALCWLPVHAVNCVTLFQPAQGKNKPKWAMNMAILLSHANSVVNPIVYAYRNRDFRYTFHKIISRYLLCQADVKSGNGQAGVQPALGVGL

As for `C[C@H](Nc1nc(C(=O)N2CCNC2)c2sccc2n1)c1cncc(F)c1` [Example Z381, (S)-(2-((1-(5-Fluoropyridin-3-yl)ethyl)amino)thieno[3,2-d]pyrimidin-4-yl)(imidazolidin-1-yl)methanone], the Ratio in experiment [1] (setting [3]) came to 47.20. Besides, the pIC50 in experiment [1] was 7.30 to 8.00; in experiment [2], below 6.30.
As for `C[C@H](Nc1nc(C(=O)NCCc2ccc(Cl)cc2)c2sccc2n1)c1cncc(F)c1` [Example Z385, (S)—N-(4-Chlorophenethyl)-2-((1-(5-fluoropyridin-3-yl)ethyl)amino)thieno[3,2-d]pyrimidine-4-carboxamide], in experiment [1] (setting [3]), the Ratio turned out to be 7.44. Also, the results for the negative logarithm of the IC50 (pIC50) in experiment [1] and in experiment [2] were 7.00 to 7.30 and below 6.30, respectively.
For the molecule `Cc1cc2nc(N[C@@H](C)c3cccnc3)nc(C(=O)NC[C@@H]3CCOC3)c2s1` [Example Z387, 6-Methyl-2-(((S)-1-(pyridin-3-yl)ethyl)amino)-N—(((S)-tetrahydrofuran-3-yl)methyl)thieno[3,2-d]pyrimidine-4-carboxamide], the Ratio in experiment [1] (setting [3]) stood at 20.10. The negative-log IC50 (pIC50) is 7.00 to 7.30 in experiment [1] and below 6.30 in experiment [2].
Consider `Cc1cc2nc(N[C@@H](C)c3cccnc3)nc(C(=O)NC[C@H]3CCOC3)c2s1` [Example Z388, 6-Methyl-2-(((S)-1-(pyridin-3-yl)ethyl)amino)-N—(((R)-tetrahydrofuran-3-yl)methyl)thieno[3,2-d]pyrimidine-4-carboxamide], for which, in experiment [1] (setting [3]), the Ratio turned out to be 10.69. The negative logarithm of the IC50 (pIC50) in experiment [1] was 7.00 to 7.30; in experiment [2] it was below 6.30.
`C[C@H](NC(=O)c1nc(N[C@@H](C)c2ccccc2)nc2ccsc12)c1ccccc1` [Example Z394, N—((S)-1-Phenylethyl)-2-(((S)-1-phenylethyl)amino)thieno[3,2-d]pyrimidine-4-carboxamide]: the Ratio in experiment [1] (setting [3]) was 0.87. In addition, the pIC50 in experiment [1] and in experiment [2] was 6.30 to 7.00 throughout.
Consider `C[C@H](Nc1nc(C(=O)N[C@@H]2CC[C@@H](O)C2)c2sccc2n1)c1cncc(F)c1` [Example Z395, 2-(((S)-1-(5-Fluoropyridin-3-yl)ethyl)amino)-N-((1R,3R)-3-hydroxycyclopentyl)thieno[3,2-d]pyrimidine-4-carboxamide], for which the Ratio in experiment [1] (setting [3]) stood at 32.64. In addition, the negative logarithm of the IC50 (pIC50) in experiment [1] was 7.30 to 8.00; in experiment [2], 6.30 to 7.00.
Take `C[C@H](Nc1nc(C(=O)N(C)CCc2ccc(O)cc2)c2sccc2n1)c1cncc(F)c1` [Example Z396, (S)-2-((1-(5-Fluoropyridin-3-yl)ethyl)amino)-N-(4-hydroxyphenethyl)-N-methylthieno[3,2-d]pyrimidine-4-carboxamide]: the Ratio in experiment [1] (setting [3]) is on record as 6.83. Also, the pIC50 in experiment [1] and in experiment [2] was below 6.30 each time.
On to `C[C@H](Nc1nc(C(=O)NC2CNC2)c2sccc2n1)c1cncc(F)c1` [Example Z397, (S)—N-(Azetidin-3-yl)-2-((1-(5-fluoropyridin-3-yl)ethyl)amino)thieno[3,2-d]pyrimidine-4-carboxamide], for which the Ratio in experiment [1] (setting [3]) is recorded as 11.51. Besides, the pIC50 in experiment [1] and in experiment [2] was below 6.30 throughout.
`COc1ccc(Oc2cc(CNC(=O)c3nc(N[C@@H](C)c4cncc(F)c4)nc4ccsc34)ccn2)cc1` [Example Z398, (S)-2-((1-(5-Fluoropyridin-3-yl)ethyl)amino)-N-((2-(4-methoxyphenoxy)pyridin-4-yl)methyl)thieno[3,2-d]pyrimidine-4-carboxamide]: the Ratio in experiment [1] (setting [3]) came to 2.82. The pIC50 in experiment [1] and in experiment [2] was 6.30 to 7.00 throughout.
Take `CO[C@@H](C)CNC(=O)c1nc(N[C@@H](C)c2cccnc2)nc2cc(C)sc12` [Example Z399, N—((S)-2-Methoxypropyl)-6-methyl-2-(((S)-1-(pyridin-3-yl)ethyl)amino)thieno[3,2-d]pyrimidine-4-carboxamide]: the Ratio in experiment [1] (setting [4]) is on record as 161.94. Besides, the values for the pIC50 in experiment [1] and in experiment [2] were 7.30 to 8.00 and below 6.30, respectively.
Consider `CO[C@H](C)CNC(=O)c1nc(N[C@@H](C)c2cccnc2)nc2cc(C)sc12` [Example Z400, N—((R)-2-Methoxypropyl)-6-methyl-2-(((S)-1-(pyridin-3-yl)ethyl)amino)thieno[3,2-d]pyrimidine-4-carboxamide], for which the Ratio in experiment [1] (setting [4]) stood at 12.22. Also, the pIC50 is 7.00 to 7.30 in experiment [1] and below 6.30 in experiment [2].
With `C[C@H](Nc1nc(C(=O)N2CCCC2)c2sccc2n1)c1ccnc(F)c1` [Example Z406, (S)-(2-((1-(2-Fluoropyridin-4-yl)ethyl)amino)thieno[3,2-d]pyrimidin-4-yl)(pyrrolidin-1-yl)methanone], the pIC50 in experiment [1] was 7.30 to 8.00; in experiment [2], 6.30 to 7.00.
In the case of `C[C@H](Nc1nc(C(=O)N2CC[C@H](O)C2)c2sccc2n1)c1ccnc(F)c1` [Example Z407, (2-(((S)-1-(2-Fluoropyridin-4-yl)ethyl)amino)thieno[3,2-d]pyrimidin-4-yl)((S)-3-hydroxypyrrolidin-1-yl)methanone], the Ratio in experiment [1] (setting [4]) worked out at 8.11. Besides, the pIC50 in experiment [1] was 6.30 to 7.00; in experiment [2], below 6.30.
With `C[C@H](Nc1nc(C(=O)N2CC[C@@H](O)C2)c2sccc2n1)c1ccnc(F)c1` [Example Z408, (2-(((S)-1-(2-Fluoropyridin-4-yl)ethyl)amino)thieno[3,2-d]pyrimidin-4-yl)((R)-3-hydroxypyrrolidin-1-yl)methanone], the Ratio in experiment [1] (setting [4]) was determined as 6.69. The pIC50 in experiment [1] is 7.00 to 7.30; in experiment [2] it was below 6.30.
With `C[C@H](Nc1nc(C(=O)NCCc2cccc(Oc3ccccc3)c2)c2sccc2n1)c1cncc(F)c1` [Example Z417, (S)-2-((1-(5-Fluoropyridin-3-yl)ethyl)amino)-N-(3-phenoxyphenethyl)thieno[3,2-d]pyrimidine-4-carboxamide], the Ratio in experiment [1] (setting [4]) is reported as 4.87. Besides, the values for the negative-log IC50 (pIC50) in experiment [1] and in experiment [2] were 6.30 to 7.00 and below 6.30, respectively.
On to `COc1ccc(CCNC(=O)c2nc(N[C@@H](C)c3cncc(F)c3)nc3ccsc23)cc1` [Example Z420, (S)-2-((1-(5-Fluoropyridin-3-yl)ethyl)amino)-N-(4-methoxyphenethyl)thieno[3,2-d]pyrimidine-4-carboxamide], for which the Ratio in experiment [1] (setting [4]) worked out at 5.38. The figures for the negative logarithm of the IC50 (pIC50) in experiment [1] and in experiment [2] were 7.00 to 7.30 and 6.30 to 7.00, respectively.
`COC(=O)c1ccc(CCNC(=O)c2nc(N[C@@H](C)c3cncc(F)c3)nc3ccsc23)cc1` [Example Z423, Methyl (S)-4-(2-(2-((1-(5-fluoropyridin-3-yl)ethyl)amino)thieno[3,2-d]pyrimidine-4-carboxamido)ethyl)benzoate]: in experiment [1] (setting [4]), the Ratio amounted to 5.22. Besides, the pIC50 in experiment [1] is 6.30 to 7.00; in experiment [2], below 6.30.
For `C[C@H](Nc1nc(C(=O)NCCC2CCCC2)c2sccc2n1)c1ccccn1` [Example Z424, (S)—N-(2-Cyclopentylethyl)-2-((1-(pyridin-2-yl)ethyl)amino)thieno[3,2-d]pyrimidine-4-carboxamide] the same measures were 1.46, 7.00 to 7.30 and 7.00 to 7.30.
For the molecule `C[C@H](Nc1nc(C(=O)NCCC2CCN(C(=O)OC(C)(C)C)C2)c2sccc2n1)c1ccccn1` (stereo partly drawn) [Example Z425, tert-Butyl 3-(2-(2-(((S)-1-(pyridin-2-yl)ethyl)amino)thieno[3,2-d]pyrimidine-4-carboxamido)ethyl)pyrrolidine-1-carboxylate], the Ratio in experiment [1] (setting [4]) was 0.82. Moreover, the pIC50 in experiment [1] is 6.30 to 7.00; in experiment [2], 7.00 to 7.30.
On to `C[C@H](Nc1nc(C(=O)NCCC2CN(C(=O)OC(C)(C)C)C2)c2sccc2n1)c1ccccn1` [Example Z426, tert-Butyl (S)-3-(2-(2-((1-(pyridin-2-yl)ethyl)amino)thieno[3,2-d]pyrimidine-4-carboxamido)ethyl)azetidine-1-carboxylate], for which the Ratio in experiment [1] (setting [4]) was determined as 3.47. Moreover, the negative-log IC50 (pIC50) was 7.00 to 7.30 in experiment [1] and 6.30 to 7.00 in experiment [2].
`C[C@H](Nc1nc(C(=O)NCCC2CCNC2)c2sccc2n1)c1ccccn1` (stereo partly drawn) [Example Z431, 2-(((S)-1-(Pyridin-2-yl)ethyl)amino)-N-(2-(pyrrolidin-3-yl)ethyl)thieno[3,2-d]pyrimidine-4-carboxamide]: the Ratio in experiment [1] (setting [4]) was found to be 37.04. Further, the negative-log IC50 (pIC50) in experiment [1] was 6.30 to 7.00; in experiment [2] it was below 6.30.
With `C[C@H](Nc1nc(C(=O)NCCC2CNC2)c2sccc2n1)c1ccccn1` [Example Z432, (S)—N-(2-(Azetidin-3-yl)ethyl)-2-((1-(pyridin-2-yl)ethyl)amino)thieno[3,2-d]pyrimidine-4-carboxamide], in experiment [1] (setting [4]), the Ratio was determined as 57.47. The values for the pIC50 in experiment [1] and in experiment [2] were 6.30 to 7.00 and below 6.30, respectively.
Consider `COc1ccc(CNc2nc(C(=O)NC3CCC3)c3sccc3n2)cn1` [Example Z434, N-Cyclobutyl-2-(((6-methoxypyridin-3-yl)methyl)amino)thieno[3,2-d]pyrimidine-4-carboxamide], for which the Ratio in experiment [1] (setting [4]) was determined as 0.08. Moreover, the negative-log IC50 (pIC50) in experiment [1] is below 6.30; in experiment [2], 7.00 to 7.30.
In the case of `COc1ccc(CNc2nc(C(=O)NCc3cccnc3)c3sccc3n2)cn1` [Example Z436, 2-(((6-Methoxypyridin-3-yl)methyl)amino)-N-(pyridin-3-ylmethyl)thieno[3,2-d]pyrimidine-4-carboxamide], in experiment [1] (setting [4]), the Ratio came to 0.15. Further, the pIC50 in experiment [1] was below 6.30; in experiment [2], 6.30 to 7.00.
Consider `COc1cccc(CCNC(=O)c2nc(N[C@@H](C)c3ccccn3)nc3ccsc23)c1` [Example Z437, (S)—N-(3-Methoxyphenethyl)-2-((1-(pyridin-2-yl)ethyl)amino)thieno[3,2-d]pyrimidine-4-carboxamide], for which the pIC50 in experiment [1] and in experiment [2] was 6.30 to 7.00 throughout.
With `CCO[C@@H]1CCN(C(=O)c2nc(N[C@@H](C)c3ccccn3)nc3ccsc23)C1` [Example Z438, ((R)-3-Ethoxypyrrolidin-1-yl)(2-(((S)-1-(pyridin-2-yl)ethyl)amino)thieno[3,2-d]pyrimidin-4-yl)methanone], in experiment [1] (setting [4]), the Ratio is on record as 2.65. The pIC50 in experiment [1] was 7.30 to 8.00; in experiment [2], 7.00 to 7.30.
